Experimental data: ChEMBL document CHEMBL1151757, “Synthesis, radiosynthesis, and biological evaluation of fluorine-18-labeled 2beta-carbo(fluoroalkoxy)-3beta-(3'-((Z)-2-haloethenyl)phenyl)nortropanes: candidate radioligands for in vivo imaging of the serotonin transporter with positron emission tomography” (J Med Chem, 2008)

Legend:
[1] = Ratio of drug uptake in pons to cerebellum in anesthetized cynomolgus monkey after 35 mins postinjection; assay type: ADME, organism-based, Macaca fascicularis; settings: in vivo
[2] = Ratio of drug uptake in pons to cerebellum in anesthetized cynomolgus monkey after 85 mins postinjection; assay type: ADME, organism-based, Macaca fascicularis; settings: in vivo
[3] = Ratio of drug uptake in medulla to cerebellum in anesthetized cynomolgus monkey after 35 mins postinjection; assay type: ADME, organism-based, Macaca fascicularis; settings: in vivo
[4] = Ratio of drug uptake in medulla to cerebellum in anesthetized cynomolgus monkey after 65 mins postinjection; assay type: ADME, organism-based, Macaca fascicularis; settings: in vivo
[5] = Ratio of drug uptake in medulla to cerebellum in anesthetized cynomolgus monkey after 135 mins postinjection; assay type: ADME, organism-based, Macaca fascicularis; settings: in vivo, 2.25 h
[6] = Drug uptake in anesthetized cynomolgus monkey brain occipital lobe after 2.5 mins postinjection; assay type: ADME, organism-based, Macaca fascicularis; settings: in vivo
[7] = Drug uptake in anesthetized cynomolgus monkey brain occipital lobe after 3.5 mins postinjection; assay type: ADME, organism-based, Macaca fascicularis; settings: in vivo
[8] = Drug uptake in anesthetized cynomolgus monkey brain occipital lobe after 55 mins postinjection; assay type: ADME, organism-based, Macaca fascicularis; settings: in vivo
[9] = Drug uptake in anesthetized cynomolgus monkey brain occipital lobe after 75 mins postinjection; assay type: ADME, organism-based, Macaca fascicularis; settings: in vivo, 1.25 h
[10] = Drug uptake in anesthetized cynomolgus monkey brain occipital lobe after 175 mins postinjection; assay type: ADME, organism-based, Macaca fascicularis; settings: in vivo
[11] = Drug uptake in anesthetized cynomolgus monkey brain frontal lobe after 1.5 mins postinjection; assay type: ADME, organism-based, Macaca fascicularis; settings: in vivo, 0.025 h
[12] = Drug uptake in anesthetized cynomolgus monkey brain frontal lobe after 2.5 mins postinjection; assay type: ADME, organism-based, Macaca fascicularis; settings: in vivo
[13] = Drug uptake in anesthetized cynomolgus monkey brain frontal lobe after 4.5 mins postinjection; assay type: ADME, organism-based, Macaca fascicularis; settings: in vivo, 0.075 h
[14] = Drug uptake in anesthetized cynomolgus monkey brain frontal lobe after 27.5 mins postinjection; assay type: ADME, organism-based, Macaca fascicularis; settings: in vivo
[15] = Drug uptake in anesthetized cynomolgus monkey brain frontal lobe after 45 mins postinjection; assay type: ADME, organism-based, Macaca fascicularis; settings: in vivo, 0.75 h
[16] = Drug uptake in anesthetized cynomolgus monkey brain frontal lobe after 85 mins postinjection; assay type: ADME, organism-based, Macaca fascicularis; settings: in vivo
[17] = Drug uptake in anesthetized cynomolgus monkey brain frontal lobe after 125 mins postinjection; assay type: ADME, organism-based, Macaca fascicularis; settings: in vivo
[18] = Drug uptake in anesthetized cynomolgus monkey brain frontal lobe after 225 mins postinjection; assay type: ADME, organism-based, Macaca fascicularis; settings: in vivo, 3.75 h
[19] = Ratio of drug uptake in midbrain to cerebellum in anesthetized cynomolgus monkey after 235 mins postinjection; assay type: ADME, organism-based, Macaca fascicularis; settings: in vivo
[20] = Ratio of drug uptake in pons to cerebellum in anesthetized cynomolgus monkey after 1.5 mins postinjection; assay type: ADME, organism-based, Macaca fascicularis; settings: in vivo, 0.025 h
[21] = Ratio of drug uptake in occipital lobe to cerebellum in anesthetized cynomolgus monkey after 115 mins postinjection; assay type: ADME, organism-based, Macaca fascicularis; settings: in vivo
Putamen [22] = assay: Drug uptake in anesthetized cynomolgus monkey brain putamen after 175 mins postinjection; assay type: ADME, organism-based, Macaca fascicularis; settings: in vivo
Midbrain [23] = assay: Drug uptake in anesthetized cynomolgus monkey brain midbrain after 225 mins postinjection; assay type: ADME, organism-based, Macaca fascicularis; settings: in vivo, 3.75 h
Pons [24] = assay: Drug uptake in anesthetized cynomolgus monkey brain pons after 0.5 mins postinjection; assay type: ADME, organism-based, Macaca fascicularis; settings: in vivo
Pons [25] = assay: Drug uptake in anesthetized cynomolgus monkey brain pons after 3.5 mins postinjection; assay type: ADME, organism-based, Macaca fascicularis; settings: in vivo
Pons [26] = assay: Drug uptake in anesthetized cynomolgus monkey brain pons after 22.5 mins postinjection; assay type: ADME, organism-based, Macaca fascicularis; settings: in vivo, 0.375 h
Pons [27] = assay: Drug uptake in anesthetized cynomolgus monkey brain pons after 55 mins postinjection; assay type: ADME, organism-based, Macaca fascicularis; settings: in vivo
Pons [28] = assay: Drug uptake in anesthetized cynomolgus monkey brain pons after 185 mins postinjection; assay type: ADME, organism-based, Macaca fascicularis; settings: in vivo
[29] = Drug uptake in anesthetized cynomolgus monkey brain cerebellum after 205 mins postinjection; assay type: ADME, organism-based, Macaca fascicularis; settings: in vivo
[30] = Drug uptake in anesthetized cynomolgus monkey brain frontal lobe after 195 mins postinjection; assay type: ADME, organism-based, Macaca fascicularis; settings: in vivo, 3.25 h
Caudate [31] = assay: Drug uptake in anesthetized cynomolgus monkey brain caudate after 205 mins postinjection; assay type: ADME, organism-based, Macaca fascicularis, Caudate nucleus; settings: in vivo
Putamen [32] = assay: Drug uptake in anesthetized cynomolgus monkey brain putamen after 195 mins postinjection; assay type: ADME, organism-based, Macaca fascicularis; settings: in vivo, 3.25 h
Thalamus [33] = assay: Drug uptake in anesthetized cynomolgus monkey brain thalamus after 185 mins postinjection; assay type: ADME, organism-based, Macaca fascicularis; settings: in vivo
[34] = Ratio of drug uptake in caudate to cerebellum in anesthetized cynomolgus monkey after 65 mins postinjection; assay type: ADME, organism-based, Macaca fascicularis; settings: in vivo
[35] = Ratio of drug uptake in caudate to cerebellum in anesthetized cynomolgus monkey after 95 mins postinjection; assay type: ADME, organism-based, Macaca fascicularis; settings: in vivo
Pons [36] = assay: Drug uptake in anesthetized cynomolgus monkey brain pons after 155 mins postinjection; assay type: ADME, organism-based, Macaca fascicularis; settings: in vivo
Pons [37] = assay: Drug uptake in anesthetized cynomolgus monkey brain pons after 225 mins postinjection; assay type: ADME, organism-based, Macaca fascicularis; settings: in vivo, 3.75 h
Medulla [38] = assay: Drug uptake in anesthetized cynomolgus monkey brain medulla after 4.5 mins postinjection; assay type: ADME, organism-based, Macaca fascicularis; settings: in vivo, 0.075 h
Medulla [39] = assay: Drug uptake in anesthetized cynomolgus monkey brain medulla after 12.5 mins postinjection; assay type: ADME, organism-based, Macaca fascicularis; settings: in vivo
Medulla [40] = assay: Drug uptake in anesthetized cynomolgus monkey brain medulla after 15.5 mins postinjection; assay type: ADME, organism-based, Macaca fascicularis; settings: in vivo
Medulla [41] = assay: Drug uptake in anesthetized cynomolgus monkey brain medulla after 35 mins postinjection; assay type: ADME, organism-based, Macaca fascicularis; settings: in vivo
Medulla [42] = assay: Drug uptake in anesthetized cynomolgus monkey brain medulla after 55 mins postinjection; assay type: ADME, organism-based, Macaca fascicularis; settings: in vivo
Medulla [43] = assay: Drug uptake in anesthetized cynomolgus monkey brain medulla after 145 mins postinjection; assay type: ADME, organism-based, Macaca fascicularis; settings: in vivo
Medulla [44] = assay: Drug uptake in anesthetized cynomolgus monkey brain medulla after 175 mins postinjection; assay type: ADME, organism-based, Macaca fascicularis; settings: in vivo
[45] = Octanol-water partition coefficient, log P at pH 7.4 by shake-flask method; assay type: physicochemical
[46] = Drug uptake in anesthetized cynomolgus monkey brain cerebellum after 1.5 mins postinjection; assay type: ADME, organism-based, Macaca fascicularis; settings: in vivo, 0.025 h
[47] = Drug uptake in anesthetized cynomolgus monkey brain cerebellum after 12.5 mins postinjection; assay type: ADME, organism-based, Macaca fascicularis; settings: in vivo
[48] = Drug uptake in anesthetized cynomolgus monkey brain cerebellum after 135 mins postinjection; assay type: ADME, organism-based, Macaca fascicularis; settings: in vivo, 2.25 h
[49] = Drug uptake in anesthetized cynomolgus monkey brain cerebellum after 155 mins postinjection; assay type: ADME, organism-based, Macaca fascicularis; settings: in vivo
[50] = Drug uptake in anesthetized cynomolgus monkey brain cerebellum after 175 mins postinjection; assay type: ADME, organism-based, Macaca fascicularis; settings: in vivo
[51] = Ratio of drug uptake in thalamus to cerebellum in anesthetized cynomolgus monkey after 115 mins postinjection; assay type: ADME, organism-based, Macaca fascicularis; settings: in vivo
Caudate [52] = assay: Drug uptake in anesthetized cynomolgus monkey brain caudate after 1.5 mins postinjection; assay type: ADME, organism-based, Macaca fascicularis, Caudate nucleus; settings: in vivo, 0.025 h
Caudate [53] = assay: Drug uptake in anesthetized cynomolgus monkey brain caudate after 4.5 mins postinjection; assay type: ADME, organism-based, Macaca fascicularis, Caudate nucleus; settings: in vivo, 0.075 h
Caudate [54] = assay: Drug uptake in anesthetized cynomolgus monkey brain caudate after 9.5 mins postinjection; assay type: ADME, organism-based, Macaca fascicularis, Caudate nucleus; settings: in vivo
Caudate [55] = assay: Drug uptake in anesthetized cynomolgus monkey brain caudate after 22.5 mins postinjection; assay type: ADME, organism-based, Macaca fascicularis, Caudate nucleus; settings: in vivo, 0.375 h
Caudate [56] = assay: Drug uptake in anesthetized cynomolgus monkey brain caudate after 27.5 mins postinjection; assay type: ADME, organism-based, Macaca fascicularis, Caudate nucleus; settings: in vivo
Caudate [57] = assay: Drug uptake in anesthetized cynomolgus monkey brain caudate after 55 mins postinjection; assay type: ADME, organism-based, Macaca fascicularis, Caudate nucleus; settings: in vivo
Caudate [58] = assay: Drug uptake in anesthetized cynomolgus monkey brain caudate after 65 mins postinjection; assay type: ADME, organism-based, Macaca fascicularis, Caudate nucleus; settings: in vivo
Caudate [59] = assay: Drug uptake in anesthetized cynomolgus monkey brain caudate after 125 mins postinjection; assay type: ADME, organism-based, Macaca fascicularis, Caudate nucleus; settings: in vivo
Caudate [60] = assay: Drug uptake in anesthetized cynomolgus monkey brain caudate after 225 mins postinjection; assay type: ADME, organism-based, Macaca fascicularis, Caudate nucleus; settings: in vivo, 3.75 h
Putamen [61] = assay: Drug uptake in anesthetized cynomolgus monkey brain putamen after 2.5 mins postinjection; assay type: ADME, organism-based, Macaca fascicularis; settings: in vivo
Thalamus [62] = assay: Drug uptake in anesthetized cynomolgus monkey brain thalamus after 9.5 mins postinjection; assay type: ADME, organism-based, Macaca fascicularis; design: unit not given here; settings: in vivo
Thalamus [63] = assay: Drug uptake in anesthetized cynomolgus monkey brain thalamus after 27.5 mins postinjection; assay type: ADME, organism-based, Macaca fascicularis; design: unit not given here; settings: in vivo
Thalamus [64] = assay: Drug uptake in anesthetized cynomolgus monkey brain thalamus after 85 mins postinjection; assay type: ADME, organism-based, Macaca fascicularis; design: unit not given here; settings: in vivo
Thalamus [65] = assay: Drug uptake in anesthetized cynomolgus monkey brain thalamus after 115 mins postinjection; assay type: ADME, organism-based, Macaca fascicularis; design: unit not given here; settings: in vivo
Midbrain [66] = assay: Drug uptake in anesthetized cynomolgus monkey brain midbrain after 4.5 mins postinjection; assay type: ADME, organism-based, Macaca fascicularis; design: unit not given here; settings: in vivo, 0.075 h
Midbrain [67] = assay: Drug uptake in anesthetized cynomolgus monkey brain midbrain after 12.5 mins postinjection; assay type: ADME, organism-based, Macaca fascicularis; design: unit not given here; settings: in vivo
Midbrain [68] = assay: Drug uptake in anesthetized cynomolgus monkey brain midbrain after 85 mins postinjection; assay type: ADME, organism-based, Macaca fascicularis; design: unit not given here; settings: in vivo
[69] = Ratio of drug uptake in midbrain to cerebellum in anesthetized cynomolgus monkey after 135 mins postinjection; assay type: ADME, organism-based, Macaca fascicularis; settings: in vivo, 2.25 h

O=C(OCC[18F])C1C2CCC(CC1c1cccc(/C=C\Br)c1)N2 (centres undefined)
Ratio [1]: 1.1
Ratio [2]: 1.4
Ratio [3]: 1.3
Ratio [4]: 1.4
Ratio [5]: 1.7
Drug uptake [6]: 0.36
Drug uptake [7]: 0.64
Drug uptake [8]: 3.49
Drug uptake [9]: 3.49
Drug uptake [10]: 2.42
Drug uptake [11]: 0.04
Drug uptake [12]: 0.22
Drug uptake [13]: 1.02
Drug uptake [14]: 2.69
Drug uptake [15]: 2.85
Drug uptake [16]: 2.88
Drug uptake [17]: 2.69
Drug uptake [18]: 1.88
Ratio [19]: 2.3
Ratio [20]: 1.6
Ratio [21]: 1.1
Drug uptake (Putamen [22]): 3.76
Drug uptake (Midbrain [23]): 3.74
Drug uptake (Pons [24]): 0.01
Drug uptake (Pons [25]): 0.82
Drug uptake (Pons [26]): 3.81
Drug uptake (Pons [27]): 4.36
Drug uptake (Pons [28]): 3.6
Drug uptake [29]: 1.8
Drug uptake [30]: 2.18
Drug uptake (Caudate [31]): 2.92
Drug uptake (Putamen [32]): 3.53
Drug uptake (Thalamus [33]): 3.48
Ratio [34]: 1.2
Ratio [35]: 1.4
Drug uptake (Pons [36]): 3.92
Drug uptake (Pons [37]): 2.77
Drug uptake (Medulla [38]): 2.07
Drug uptake (Medulla [39]): 4.2
Drug uptake (Medulla [40]): 4.15
Drug uptake (Medulla [41]): 4.97
Drug uptake (Medulla [42]): 4.82
Drug uptake (Medulla [43]): 3.92
Drug uptake (Medulla [44]): 3.62
logD [45]: 1.4
Drug uptake [46]: 0.06
Drug uptake [47]: 3.41
Drug uptake [48]: 2.43
Drug uptake [49]: 2.19
Drug uptake [50]: 2.03
Ratio [51]: 1.5
Drug uptake (Caudate [52]): 0.04
Drug uptake (Caudate [53]): 1.12
Drug uptake (Caudate [54]): 2.36
Drug uptake (Caudate [55]): 3.22
Drug uptake (Caudate [56]): 3.3
Drug uptake (Caudate [57]): 4.1
Drug uptake (Caudate [58]): 4.08
Drug uptake (Caudate [59]): 3.75
Drug uptake (Caudate [60]): 2.93
Drug uptake (Putamen [61]): 0.4
Drug uptake (Thalamus [62]): 2.83
Drug uptake (Thalamus [63]): 3.94
Drug uptake (Thalamus [64]): 4.41
Drug uptake (Thalamus [65]): 4.22
Drug uptake (Midbrain [66]): 1.76
Drug uptake (Midbrain [67]): 3.83
Drug uptake (Midbrain [68]): 4.9
Ratio [69]: 1.9
